Reference: patent US6410340B1, “Use of an 8.4 kDa protein as an immunophilin reagent in protein binding assays for immunosuppressive drugs” (Children's Research Institute, priority 2000, dated 2002)

Columns and labels:
[1] = test system: 5-8 kDa immunophilin; details: cited from earlier work
[2] = test system: 52 kDa immunophilin; details: Davis et al. 2000; cited from earlier work
[3] = molecular target: T1, 8.4 kDa immunophilin (Bos taurus, UniProt P62992); assay: Saturation analysis of tritiated FK-506 binding to calf thymus 8.4 kDa immunophilin (Scatchard, Hill plots); details: tritiated FK-506, calf thymus 8.4 kDa immunophilin, EBDA/LIGAND
T1 construct: from tissue; host or cells: calf thymus
From the text: Analytical data on purified immunophilins may be obtained conventionally. Association constants, specific binding activities, and numbers and types of binding sites can be obtained from Scatchard and Hill plots, using EBDA and LIGAND software. Isoelectric points (“pI”) can be obtained by isofocussing techniques. To obtain amino acid composition data, samples can be hydrolyzed by HCl gas in the presence of internal standards (e.g., norvaline and sarcosine), the products derivatized with a fluorescent reagent, and the derivatized amino acids separated on a Hewlett-Packard AMINO QUANT Analyzer. […]
An immunophilin protein binding assay (“IBA”) carried out in accordance with this invention can be performed by solution phase or solid phase methods. […] Following attainment of equilibrium, the amount of labeled drug bound to the immunophilin is determined. The amount of labeled drug bound will be reduced in proportion to the amount of analyte in a biological sample being analyzed. The quantitative relationship between the reduction of immunophilin-bound labeled drug and the concentration of the analyte in the unknown sample is determined by reference to a standard calibration curve. […] The amount of labeled drug bound to an immunophilin need not be determined directly; it may be determined by subtracting from the total amount of label added […] in the solution at equilibrium. […]

[4] = cited from earlier work; for fraction in the blood in the form of the parent compound: patients; for metabolites as share of all drug species in blood: rapamycin: trough blood samples
[5] = molecular target: T1, 8.4 kDa immunophilin; assay: Displacement of tritiated FK-506 from the 8.4 kDa immunophilin by RAP; assay type: binding, calf; details: displacement of tritiated FK-506 by RAP; read-out: calculated Kd
From the text: An immunophilin protein binding assay (“IBA”) carried out in accordance with this invention can be performed by solution phase or solid phase methods. The basic principle underlying each method is the same, and is described in, e.g., Davis et al., Clin. Biochem. 33:1(2000) and the Soldin patents listed above. Briefly, in a competitive IBA, a competition equilibrium is set up between a tracer amount of labeled drug and the corresponding drug in unknown samples containing the drug or biologically-active metabolites for binding to specific binding sites on an immunophilin. Following attainment of equilibrium, the amount of labeled drug bound to the immunophilin is determined. The amount of labeled drug bound will be reduced in proportion to the amount of analyte in a biological sample being analyzed. The quantitative relationship between the reduction of immunophilin-bound labeled drug and the concentration of the analyte in the unknown sample is determined by reference to a standard calibration curve. […] The amount of labeled drug bound to an immunophilin need not be determined directly; it may be determined by subtracting from the total amount of label added […] in the solution at equilibrium. […]

[6] = molecular target: T1, 8.4 kDa immunophilin; assay: Binding of [mebmt-beta-3H]-CsA to the 8.4 kDa immunophilin; set-up: species or system calf; details: too low to measure; dissociation constant could not be determined
From the text: A dissociation constant for [mebmt-beta-3H]-CsA with the 8.4 kDa immunophilin could not be determined, as the binding of this drug to the protein was too low to measure (0.13%).

T1 sequence (P62992 1-74 limits assumed): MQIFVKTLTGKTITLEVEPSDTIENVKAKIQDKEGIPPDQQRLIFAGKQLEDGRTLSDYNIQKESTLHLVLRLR

Molecule	binding to 5-8 kDa immunophilin [1]	binding to 52 kDa immunophilin [2]	further results
7-0-demethyl sirolimus	substantially binds	substantially binds	
32,41-0-demethyl sirolimus	substantially binds	substantially binds	
41-0-demethyl sirolimus	substantially binds	substantially binds	
C=CC[C@@H]1/C=C(\C)C[C@H](C)C[C@H](OC)[C@H]2O[C@@](O)(C(=O)C(=O)N3CCCC[C@H]3C(=O)O[C@H](/C(C)=C/[C@@H]3CC[C@@H](O)[C@H](OC)C3)[C@H](C)[C@@H](O)CC1=O)[C@H](C)C[C@@H]2OC [FK-506]			Kd [3]: 800 pM; fraction in the blood in the form of the parent compound [4]: ¾; metabolites as share of all drug species in blood [4]: about 30%
CO[C@H]1C[C@@H]2CC[C@@H](C)[C@@](O)(O2)C(=O)C(=O)N2CCCC[C@H]2C(=O)O[C@H]([C@H](C)C[C@@H]2CC[C@@H](O)[C@H](OC)C2)CC(=O)[C@H](C)/C=C(\C)[C@@H](O)[C@@H](OC)C(=O)[C@H](C)C[C@H](C)/C=C/C=C/C=C/1C [RAP, rapamycin]			Kd [5]: 80 pM; fraction in the blood in the form of the parent compound [4]: ½; metabolites as share of all drug species in blood [4]: at least 50%
(C1-C8 or C32-C36) OH sirolimus	substantially binds	substantially binds	
(C9-C23)-OH-sirolimus	all but the fourth metabolite substantially binds	all but the fourth metabolite substantially binds	
cyclosporin A [CsA]			binding of the drug to the protein [6]: 0.13%
